Data from patent US6683077B2, “2-Amino-benzoxazinones for the treatment of viral infections” (G.D. Searle & Co., priority 1996, dated 2004).

test system: HCMV engineered virus RC256; assay: microbe, parasite or virus in culture; assay type: cell-based, human cytomegalovirus; conditions: Human betaherpesvirus 5, Fibroblast, read-out: Antiviral Activity RC256, first value (EC50)

Structure (SMILES)	EC50 [µM]
Cc1c(NC(=O)OC(C)(C)C)ccc2nc(N[C@@H](Cc3ccc(I)cc3)C(=O)N(C)C)oc(=O)c12 [Example 6cc, 1,1-Dimethylethyl[2-[[2-(dimethylamino)-1S-[(4-iodophenyl)methyl]-2-oxoethyl]amino]-5-methyl-4-oxo-4H-3,1-benzoxazin-6-yl]carbamate]	40
COc1ccc(C[C@H](Nc2nc3ccc(CNC(=O)OCCN4CCOCC4)c(C)c3c(=O)o2)C(=O)N(C)Cc2ccccc2)cc1 [Example 18b, 2-(4-Morpholinyl)ethyl[[2-[[1S-[(4-methoxyphenyl)methyl]-2-[methyl(phenylmethyl)amino]-2-oxoethyl]amino]-5-methyl-4-oxo-3,1-benzoxazin-6-yl]methyl]carbamate]	12
Cc1c(CNC(=O)OCCN2CCOCC2)ccc2nc(N[C@@H](Cc3ccccc3)C(=O)N(C)Cc3ccccc3)oc(=O)c12 [Example 18h]	11
Cc1c(CNS(C)(=O)=O)cc(Br)c2nc(N[C@@H](Cc3ccccc3)C(=O)N(C)Cc3ccccc3)oc(=O)c12 [Example 15j, αS-[[8-Bromo-5-methyl-6-[[(methylsulfonyl)amino]methyl]-4-oxo-4H-3,1-benzoxazin-2-yl]amino]-N-methyl-N-(phenylmethyl)benzenepropanamide]	13
Cc1c(CNC(=O)OCCN(C)C)ccc2nc(N[C@@H](Cc3ccccc3)C(=O)N(C)Cc3ccccc3)oc(=O)c12 [Example 18g, 2-(Dimethylamino)ethyl[[5-methyl-2-[[2-[methyl(phenylmethyl)amino]-2-oxo-1S-(phenylmethyl)ethyl]amino]-4-oxo-4H-3,1-benzoxazin-6-yl]methyl]carbamate]	13
Cc1c(CNC(=O)OCc2cccnc2)ccc2nc(N[C@@H](Cc3ccccc3)C(=O)N(C)Cc3ccccc3)oc(=O)c12 [Example 18e, 3-Pyridinylmethyl[[5-methyl-2-[[2-[methyl(phenylmethyl)amino]-2-oxo-1S-(phenylmethyl)ethyl]amino]-4-oxo-4H-3,1-benzoxazin-6-yl]methyl]carbamate]	7
COC(=O)[C@H](C)Nc1nc2ccc(NS(=O)(=O)c3ccccc3)c(C)c2c(=O)o1 [Example 13a]	60
COc1ccc(C[C@H](Nc2nc3ccc(CNC(=O)OCc4cccnc4)c(C)c3c(=O)o2)C(=O)N(C)Cc2ccccc2)cc1 [Example 18, 3-Pyridinylmethyl[[2-[[1S-[(4-methoxyphenyl)methyl]-2-[methyl(phenylmethyl)amino]-2-oxoethyl]amino]-5-methyl-4-oxo-4H-3,1-benzoxazin-6-yl]methyl]carbamate]	14
CCOC(=O)Nc1ccc2nc(N[C@@H](Cc3ccc(OC)cc3)C(=O)N(C)Cc3ccccc3)oc(=O)c2c1C [Example 11r, Ethyl[2-[[1S-[(4-methoxyphenyl)methyl]-2-[methyl(phenylmethyl)amino]-2-oxoethyl]amino]-5-methyl-4H-3,1-benzoxazin-6-yl]carbamate]	12
COc1ccc(C[C@H](Nc2nc3ccc(NC(=O)OC(C)(C)C)c(C)c3c(=O)o2)C(=O)NCc2ccccn2)cc1 [Example 6gg, 1,1-Dimethylethyl[2-[[1S-[(4-methoxphenyl)methyl]-2-oxo-2-[[(2-pyridinyl)methyl]amino]ethyl]amino]-5-methyl-4-oxo-4H-3,1-benzoxazin-6-yl]carbamate]	6.5
Cc1cccc2nc(N[C@H](C(=O)OC(C)(C)C)c3ccccc3)oc(=O)c12 [Example 1o, N-(5-Methyl-4-oxo-4H-3,1-benzoxazin-2-yl)-L-phenylglycine, 1,1-dimethylethyl ester]	10
COC(=O)[C@H](Cc1ccccc1)Nc1nc2ccc(NS(=O)(=O)c3ccccc3)c(C)c2c(=O)o1 [Example 13]	60
COC(=O)C(C)(C)Nc1nc2ccc(NC(=O)OC(C)(C)C)c(C)c2c(=O)o1 [Example 6w, N-[6-[[(1,1-Dimethylethoxy)carbonyl]amino]-5-methyl-4-oxo-4H-3,1-benzoxazin-2-yl]-2-aminoisobutyric acid, methyl ester]	> 100
Cc1c(CNC(=O)OCc2ccccc2)ccc2nc(N[C@@H](Cc3ccc(Cl)cc3)C(=O)N(C)Cc3ccccc3)oc(=O)c12 [Example 9t, Phenylmethyl[[2-[[1S-[(4-chlorophenyl)methyl]-2-[methyl(phenylmethyl)amino]-2-oxoethyl]amino]-5-methyl-4-oxo-4H-3,1-benzoxazin-6-yl]methyl]carbamate]	20
COc1ccc(C[C@H](Nc2nc3ccc(N(C)C)c(C)c3c(=O)o2)C(=O)N(C)Cc2ccccc2)cc1 [Example 16a, αS-[[6-(Dimethylamino)-5-methyl-4-oxo-4H-3,1-benzoxazin-2-yl]amino]-4-methoxy-N-methyl-N-(phenylmethyl)benzenepropanamide]	15
CCN(Cc1ccccc1)C(=O)[C@H](Cc1ccccc1)Nc1nc2ccc(N)c(C)c2c(=O)o1 [Example 8f, αS-[(6-Amino-5-methyl-4-oxo-4H-3,1-benzoxazin-2-yl)amino]-N-ethyl-N-(phenylmethyl)benzenepropanamide]	17
Cc1c(CNC(=O)OCc2ccccc2)ccc2nc(N[C@@H](Cc3ccccc3)C(=O)N(C)Cc3cccnc3)oc(=O)c12 [Example 9z]	10
Cc1c(CNC(=O)C=Cc2ccccc2)ccc2nc(N[C@@H](Cc3ccccc3)C(=O)N(C)Cc3ccccc3)oc(=O)c12 [Example 9v, N-Methyl-αS-[[5-methyl-6-[[(1-oxo-3-phenyl-2-propenyl)amino]methyl]-4-oxo-4H-3,1-benzoxazin-2-yl]amino]-N-(phenylmethyl)benzenepropanamide]	26
COc1ccc(C[C@H](Nc2nc3ccc(CNC(=O)CN4CCOCC4)c(C)c3c(=O)o2)C(=O)N(C)Cc2ccccc2)cc1 [Example 9n, N-[[2-[[1S-[(4-Methoxyphenyl)methyl]-2-[methyl(phenylmethyl)amino]-2-oxoethyl]amino]-5-methyl-4-oxo-4H-3,1-benzoxazin-6-yl]methyl]morpholine-4-acetamide]	75
Cc1cccc2nc(N[C@H](C)c3ccccc3)oc(=O)c12 [Example 3c, 5-Methyl-2-[[(1R)-1-phenylethyl]amino]-4H-3,1-benzoxazin-4-one]	17
Cc1c(NC(=O)OC(C)(C)C)ccc2nc(N[C@@H](Cc3c[nH]c4ccccc34)C(=O)N(C)C)oc(=O)c12 [Example 6o, N-[6-[[(1,1-Dimethylethoxy)carbonyl]amino]-5-methyl-4-oxo-4H-3,1-benzoxazin-2-yl]-L-tryptophan, dimethylamide]	59
Cc1c(CNC(=O)NC(C)(C)C)ccc2nc(N[C@@H](Cc3ccccc3)C(=O)N(C)Cc3ccccc3)oc(=O)c12 [Example 12e, αS-[[6-[[[[(1,1-Dimethylethyl)amino]carbonyl]amino]methyl]-5-methyl-4-oxo-4H-3,1-benzoxazin-2-yl]amino]-N-methyl-N-(phenylmethyl)benzenepropanamide]	14
COC(=O)[C@H](Cc1ccccc1)Nc1nc2ccc(NC(=O)Cc3cccs3)c(C)c2c(=O)o1 [Example 11g, N-[6-[[(2-Thienylmethyl)carbonyl]amino]-5-methyl-4-oxo-4H-3,1-benzoxazin-2-yl]-L-phenylalanine, methyl ester]	10
